Key:
Experiment in all cases: Histone peptide microarray
Type in all cases: binding, human
Details in all cases: each array performed twice, total n = 4
PHRF1 (RP) = tested on: PHRF1 (RP)
In short: (§1)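 Histone peptide library (293 synthetic peptides, single/combinatorial PTMs) arrayed and probed with 0.5 μM purified GST-PHD domain; optimized protocol; quadruplicate mean and SD reported.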

TRIM66 (PB) = tested on: TRIM66 (PB)
In short: as §1

MORC3 (CW) = tested on: MORC3 (CW)
In short: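 Binding read as mean relative signal from 4 replicates; microarray held 293 synthetic histone peptides with single or combinatorial PTMs. Each GST-tagged PHD reader was applied at 0.5 μM using the optimized Petell protocol.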

CHD5 (PPCC) = tested on: CHD5 (PPCC)
In short: as §1

MLL5 = tested on: MLL5
In short: as §1

SP140L = tested on: SP140L
In short: as §1

KDM4C (TTP) = tested on: KDM4C (TTP)
In short: as §1

PHF21A = tested on: PHF21A
In short: as §1

KDM5B (1) = tested on: KDM5B (1)
In short: as §1

ING4 = tested on: ING4
In short: as §1

KDM7A = tested on: KDM7A
In short: as §1

ING2 = tested on: ING2
In short: as §1

CHD5 (PCC) = tested on: CHD5 (PCC)
In short: as §1

PHF8 = tested on: PHF8
In short: as §1

DPF2 (PPC2W2) = tested on: DPF2 (PPC2W2)
In short: as §1

KDM5B (3) = tested on: KDM5B (3)
In short: as §1

TAF3 = tested on: TAF3
In short: as §1

DIDO1 = tested on: DIDO1
In short: as §1

KDM5A (1) = tested on: KDM5A (1)
In short: as §1

BPTF (PB) = tested on: BPTF (PB)
In short: as §1

PHF13 = tested on: PHF13
In short: as §1

PHF2 = tested on: PHF2
In short: as §1

BAZ2B = tested on: BAZ2B
In short: as §1

CHD4 (PPCC) = tested on: CHD4 (PPCC)
In short: as §1

ING1 = tested on: ING1
In short: as §1

ING5 = tested on: ING5
In short: as §1

ING3 = tested on: ING3
In short: as §1

RAG2 = tested on: RAG2
In short: as §1

PHF23 = tested on: PHF23
In short: as §1

AIRE (PP) = tested on: AIRE (PP)
In short: as §1

KDM5A (3) = tested on: KDM5A (3)
In short: as §1

Substance: H3K4me3R8me2a: H3 1-20
- Array Heatmap value (peptide array signal) (PHRF1 (RP); PHRF1 (RP), sheet "Array Heatmap"): 0.4161
- Array Heatmap value (peptide array signal) (TRIM66 (PB); TRIM66 (PB), sheet "Array Heatmap"): 0.5377
- Array Heatmap value (peptide array signal) (MORC3 (CW); MORC3 (CW), sheet "Array Heatmap"): 0.4123
- Array Heatmap value (peptide array signal) (CHD5 (PPCC); CHD5 (PPCC), sheet "Array Heatmap"): 0.4208
- Array Heatmap value (peptide array signal) (MLL5; MLL5, sheet "Array Heatmap"): 0.5116
- Array Heatmap value (peptide array signal) (SP140L; SP140L, sheet "Array Heatmap"): 0.3243
- Array Heatmap value (peptide array signal) (KDM4C (TTP); KDM4C (TTP), sheet "Array Heatmap"): 0.39
- Array Heatmap value (peptide array signal) (PHF21A; PHF21A, sheet "Array Heatmap"): 0.4017
- Array Heatmap value (peptide array signal) (KDM5B (1); KDM5B (1), sheet "Array Heatmap"): 0.5478
- Array Heatmap value (peptide array signal) (ING4; ING4, sheet "Array Heatmap"): 0.3653
- Array Heatmap value (peptide array signal) (KDM7A; KDM7A, sheet "Array Heatmap"): 0.3319
- Array Heatmap value (peptide array signal) (ING2; ING2, sheet "Array Heatmap"): 0.6387
- Array Heatmap value (peptide array signal) (CHD5 (PCC); CHD5 (PCC), sheet "Array Heatmap"): 0.6343
- Array Heatmap value (peptide array signal) (PHF8; PHF8, sheet "Array Heatmap"): 0.377
- Array Heatmap value (peptide array signal) (DPF2 (PPC2W2); DPF2 (PPC2W2), sheet "Array Heatmap"): 0.6137
- Array Heatmap value (peptide array signal) (KDM5B (3); KDM5B (3), sheet "Array Heatmap"): 0.4037
- Array Heatmap value (peptide array signal) (TAF3; TAF3, sheet "Array Heatmap"): 0.2483
- Array Heatmap value (peptide array signal) (DIDO1; DIDO1, sheet "Array Heatmap"): 0.6362
- Array Heatmap value (peptide array signal) (KDM5A (1); KDM5A (1), sheet "Array Heatmap"): 0.3616
- Array Heatmap value (peptide array signal) (BPTF (PB); BPTF (PB), sheet "Array Heatmap"): 0.2864
- Array Heatmap value (peptide array signal) (PHF13; PHF13, sheet "Array Heatmap"): 0.5067
- Array Heatmap value (peptide array signal) (PHF2; PHF2, sheet "Array Heatmap"): 0.5013
- Array Heatmap value (peptide array signal) (BAZ2B; BAZ2B, sheet "Array Heatmap"): 0.3334
- Array Heatmap value (peptide array signal) (CHD4 (PPCC); CHD4 (PPCC), sheet "Array Heatmap"): 0.4923
- Array Heatmap value (peptide array signal) (ING1; ING1, sheet "Array Heatmap"): 0.5333
- Array Heatmap value (peptide array signal) (ING5; ING5, sheet "Array Heatmap"): 0.2674
- Array Heatmap value (peptide array signal) (ING3; ING3, sheet "Array Heatmap"): 0.4064
- Array Heatmap value (peptide array signal) (RAG2; RAG2, sheet "Array Heatmap"): 0.2561
- Array Heatmap value (peptide array signal) (PHF23; PHF23, sheet "Array Heatmap"): 0.5109
- Array Heatmap value (peptide array signal) (AIRE (PP); AIRE (PP), sheet "Array Heatmap"): 0.3453
- Array Heatmap value (peptide array signal) (KDM5A (3); KDM5A (3), sheet "Array Heatmap"): 0.5067

Substance: H3K9ac + K14ac + K18ac: H3 1-20
- Array Heatmap signal (histone peptide microarray) (PHRF1 (RP); GST-tagged PHRF1 (RP), sheet Array Heatmap): 0.8654
- Array Heatmap signal (histone peptide microarray) (TRIM66 (PB); GST-tagged TRIM66 (PB = PHD + Bromodomain), sheet Array Heatmap): 0.7029
- Array Heatmap signal (histone peptide microarray) (MORC3 (CW); GST-tagged MORC3 (CW = CW-type Zn-finger), sheet Array Heatmap): 0.5442
- Array Heatmap signal (histone peptide microarray) (CHD5 (PPCC); GST-tagged CHD5 (PPCC = Dual PHD + Dual Chromodomain), sheet Array Heatmap): 0.5238
- Array Heatmap signal (histone peptide microarray) (MLL5; GST-tagged MLL5, sheet Array Heatmap): 0.5367
- Array Heatmap signal (histone peptide microarray) (SP140L; GST-tagged SP140L, sheet Array Heatmap): 0.346
- Array Heatmap signal (histone peptide microarray) (KDM4C (TTP); GST-tagged KDM4C (TTP = Tandem Tudor domain + PHD), sheet Array Heatmap): 0.4368
- Array Heatmap signal (histone peptide microarray) (PHF21A; GST-tagged PHF21A, sheet Array Heatmap): 0.4657
- Array Heatmap signal (histone peptide microarray) (KDM5B (1); GST-tagged KDM5B (1), sheet Array Heatmap): 0.5879
- Array Heatmap signal (histone peptide microarray) (ING4; GST-tagged ING4, sheet Array Heatmap): 0.4438
- Array Heatmap signal (histone peptide microarray) (KDM7A; GST-tagged KDM7A, sheet Array Heatmap): 0.3112
- Array Heatmap signal (histone peptide microarray) (ING2; GST-tagged ING2, sheet Array Heatmap): 0.62
- Array Heatmap signal (histone peptide microarray) (CHD5 (PCC); GST-tagged CHD5 (PCC = PHD + Dual Chromodomain), sheet Array Heatmap): 0.8362
- Array Heatmap signal (histone peptide microarray) (PHF8; GST-tagged PHF8, sheet Array Heatmap): 0.3679
- Array Heatmap signal (histone peptide microarray) (DPF2 (PPC2W2); GST-tagged DPF2 (PPC2W2 = Dual PHD + C2W2-type Zn-finger), sheet Array Heatmap): 0.8971
- Array Heatmap signal (histone peptide microarray) (KDM5B (3); GST-tagged KDM5B (3), sheet Array Heatmap): 0.4869
- Array Heatmap signal (histone peptide microarray) (TAF3; GST-tagged TAF3, sheet Array Heatmap): 0.2816
- Array Heatmap signal (histone peptide microarray) (DIDO1; GST-tagged DIDO1, sheet Array Heatmap): 0.777
- Array Heatmap signal (histone peptide microarray) (KDM5A (1); GST-tagged KDM5A (1), sheet Array Heatmap): 0.4668
- Array Heatmap signal (histone peptide microarray) (BPTF (PB); GST-tagged BPTF (PB = PHD + Bromodomain), sheet Array Heatmap): 0.3483
- Array Heatmap signal (histone peptide microarray) (PHF13; GST-tagged PHF13, sheet Array Heatmap): 0.5825
- Array Heatmap signal (histone peptide microarray) (PHF2; GST-tagged PHF2, sheet Array Heatmap): 0.5699
- Array Heatmap signal (histone peptide microarray) (BAZ2B; GST-tagged BAZ2B, sheet Array Heatmap): 0.6427
- Array Heatmap signal (histone peptide microarray) (CHD4 (PPCC); GST-tagged CHD4 (PPCC = Dual PHD + Dual Chromodomain), sheet Array Heatmap): 0.6424
- Array Heatmap signal (histone peptide microarray) (ING1; GST-tagged ING1, sheet Array Heatmap): 0.5813
- Array Heatmap signal (histone peptide microarray) (ING5; GST-tagged ING5, sheet Array Heatmap): 0.3256
- Array Heatmap signal (histone peptide microarray) (ING3; GST-tagged ING3, sheet Array Heatmap): 0.4687
- Array Heatmap signal (histone peptide microarray) (RAG2; GST-tagged RAG2, sheet Array Heatmap): 0.2782
- Array Heatmap signal (histone peptide microarray) (PHF23; GST-tagged PHF23, sheet Array Heatmap): 0.5614
- Array Heatmap signal (histone peptide microarray) (AIRE (PP); GST-tagged AIRE (PP), sheet Array Heatmap): 0.4138
- Array Heatmap signal (histone peptide microarray) (KDM5A (3); GST-tagged KDM5A (3), sheet Array Heatmap): 0.5902
